In US20080009418A1, “Selective Inhibitors” (Alchemia LTD., priority 2004, published 2008):

Legend:
Human δ-opioid (DOP) = target: T1, Human δ-opioid (DOP) (Homo sapiens, UniProt P41143); assay: Radioligand binding, human δ-opioid (DOP) membranes, FlashPlate, [3H]-Bremazocine; conditions: compound at 10 μM, [3H]-Bremazocine
T1 construct: purchased Perkin Elmer Biosignal
How it was run: (§1)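 Cloned human receptor membranes were coated onto FlashPlate wells and incubated with radioligand and compound (added from a 0.5 mM DMSO daughter plate) for 1 hour at room temperature in the dark. Scintillation counting gave percent inhibition, with DMSO defining total and reference ligand defining non-specific binding.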

Human κ-Opioid (KOP) = target: T2, Human κ-Opioid (KOP) (Homo sapiens, UniProt P41145); assay: Radioligand binding, human κ-opioid (KOP) membranes, filtration, [3H]-Diprenorphine; conditions: compound at 10 μM, [3H]-Diprenorphine
T2 construct: purchased Perkin Elmer Biosignal
How it was run: (§2)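 Membranes from cloned human receptors were incubated with compound and radioligand for 1 hour at room temperature. Bound ligand was collected on 0.3% PEI-soaked filters, washed with cold 50 mM Tris-HCl pH 7.4, and counted by scintillation. Percent inhibition was computed against DMSO totals and reference-ligand nonspecific wells.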

Human Melanocortin (MC3) = target: T3, Human Melanocortin (MC3) (Homo sapiens, UniProt P41968); assay: Radioligand binding, human melanocortin MC3 membranes, FlashPlate, [125I]-NDP-αMSH; conditions: compound at 10 μM, [125I]-NDP-αMSH
T3 construct: purchased Perkin Elmer Biosignal
How it was run: as §1

Human Melanocortin (MC4) = target: T4, Human Melanocortin (MC4) (Homo sapiens, UniProt P32245); assay: Radioligand binding, human melanocortin MC4 membranes, FlashPlate, [125I]-NDP-αMSH; conditions: compound at 10 μM, [125I]-NDP-αMSH
T4 construct: purchased Perkin Elmer Biosignal
How it was run: as §1

Human melanocortin (MC5) = target: T5, Human melanocortin (MC5) (Homo sapiens, UniProt P33032); assay: Radioligand binding, human melanocortin MC5 membranes, FlashPlate, [125I]-NDP-αMSH; conditions: compound at 10 μM, [125I]-NDP-αMSH
T5 construct: purchased Perkin Elmer Biosignal
How it was run: as §1

[1] = target: T6, Human melanin-concentrating hormone (MCH1) (Homo sapiens, UniProt Q99705); assay: Radioligand binding, human melanin-concentrating hormone MCH1 membranes, FlashPlate, [125I]-S36057; conditions: compound at 10 μM
T6 construct: purchased Perkin Elmer Biosignal
How it was run: as §1

Human μ-opioid (MOP) = target: T7, Human μ-opioid (MOP) (Homo sapiens, UniProt P35372); assay: Radioligand binding, human μ-opioid (MOP) membranes, FlashPlate, [3H]-Naloxone; conditions: compound at 10 μM, [3H]-Naloxone
T7 construct: purchased Perkin Elmer Biosignal
How it was run: as §1

Human neurokinin (NK1) = target: T8, Human neurokinin (NK1) (Homo sapiens, UniProt P25103); assay: Radioligand binding, human neurokinin NK1 membranes, filtration, [125I]-Substance P; conditions: compound at 10 μM, [125I]-Substance P
T8 construct: purchased Perkin Elmer Biosignal
How it was run: as §2

[2] = target: T9, Human neuropeptide Y (NPY-Y1) (Homo sapiens, UniProt P25929); assay: Radioligand binding, human neuropeptide Y NPY-Y1 membranes, FlashPlate, [125I]-PYY; conditions: compound at 10 μM, [125I]-PYY
T9 construct: purchased Perkin Elmer Biosignal
T9 sequence (P25929 1-384): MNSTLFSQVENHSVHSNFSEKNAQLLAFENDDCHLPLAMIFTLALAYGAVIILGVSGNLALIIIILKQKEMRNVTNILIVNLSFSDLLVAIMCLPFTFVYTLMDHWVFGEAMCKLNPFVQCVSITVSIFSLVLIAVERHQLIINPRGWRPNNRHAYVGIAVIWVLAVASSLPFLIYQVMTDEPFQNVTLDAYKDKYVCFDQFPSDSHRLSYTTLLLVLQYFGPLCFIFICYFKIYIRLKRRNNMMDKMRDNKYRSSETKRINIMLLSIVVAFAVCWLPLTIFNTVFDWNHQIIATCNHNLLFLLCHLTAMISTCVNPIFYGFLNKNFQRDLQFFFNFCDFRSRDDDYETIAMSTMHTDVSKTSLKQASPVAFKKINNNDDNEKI
How it was run: as §1

Human opioid (ORL1) = target: T10, Human opioid (ORL1) (Homo sapiens, UniProt P41146); assay: Radioligand binding, human opioid ORL1 membranes, FlashPlate, [125I]-Nociceptin; conditions: compound at 10 μM, [125I]-Nociceptin
T10 construct: purchased Perkin Elmer Biosignal
How it was run: as §1

Mouse urotensin (mUR2) = target: T11, Mouse urotensin (mUR2) (Mus musculus, UniProt Q8VIH9); assay: Radioligand binding, mouse urotensin mUR2 membranes, FlashPlate, [125I]-Urotensin II; conditions: compound at 10 μM, [125I]-Urotensin II
T11 construct: purchased Perkin Elmer Biosignal
T11 sequence (Q8VIH9 1-385): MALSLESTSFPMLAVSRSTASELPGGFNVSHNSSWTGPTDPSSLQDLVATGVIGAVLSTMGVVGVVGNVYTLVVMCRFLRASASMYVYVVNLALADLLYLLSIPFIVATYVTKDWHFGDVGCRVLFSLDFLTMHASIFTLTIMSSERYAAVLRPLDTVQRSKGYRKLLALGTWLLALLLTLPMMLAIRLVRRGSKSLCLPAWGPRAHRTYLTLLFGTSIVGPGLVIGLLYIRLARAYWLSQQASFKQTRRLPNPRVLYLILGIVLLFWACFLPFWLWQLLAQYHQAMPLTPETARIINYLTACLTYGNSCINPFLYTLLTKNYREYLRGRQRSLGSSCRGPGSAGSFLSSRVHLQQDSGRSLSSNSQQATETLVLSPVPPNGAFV
How it was run: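 Cloned mouse urotensin (mUR2) receptor membranes from Perkin Elmer Biosignal were immobilized in FlashPlate microplates using a proprietary coating. Each well got 19.5 μl buffer, then 0.5 μl of DMSO, reference ligand, or compound. Adding 5 μl of [125I]-Urotensin II, diluted to 5× final concentration in binding buffer, started binding. Plates were sealed with TopSeal-A and incubated 1 hour at room temperature in the dark. Wells were counted for 30 seconds each on a TopCount after a 60-second delay, and percentage inhibition was calculated.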

T8 sequence (P25103 whole entry): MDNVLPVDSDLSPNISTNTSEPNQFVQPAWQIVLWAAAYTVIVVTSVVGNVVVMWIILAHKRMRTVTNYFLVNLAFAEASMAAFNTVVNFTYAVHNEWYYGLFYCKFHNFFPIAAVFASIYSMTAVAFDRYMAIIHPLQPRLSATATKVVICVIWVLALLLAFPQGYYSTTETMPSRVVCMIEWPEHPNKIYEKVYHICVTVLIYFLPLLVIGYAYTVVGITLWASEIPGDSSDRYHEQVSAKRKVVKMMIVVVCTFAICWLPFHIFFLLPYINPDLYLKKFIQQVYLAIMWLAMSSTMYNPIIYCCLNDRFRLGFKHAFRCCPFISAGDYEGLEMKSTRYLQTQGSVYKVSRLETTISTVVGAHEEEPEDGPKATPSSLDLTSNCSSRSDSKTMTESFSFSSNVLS
T1 sequence (P41143 whole entry): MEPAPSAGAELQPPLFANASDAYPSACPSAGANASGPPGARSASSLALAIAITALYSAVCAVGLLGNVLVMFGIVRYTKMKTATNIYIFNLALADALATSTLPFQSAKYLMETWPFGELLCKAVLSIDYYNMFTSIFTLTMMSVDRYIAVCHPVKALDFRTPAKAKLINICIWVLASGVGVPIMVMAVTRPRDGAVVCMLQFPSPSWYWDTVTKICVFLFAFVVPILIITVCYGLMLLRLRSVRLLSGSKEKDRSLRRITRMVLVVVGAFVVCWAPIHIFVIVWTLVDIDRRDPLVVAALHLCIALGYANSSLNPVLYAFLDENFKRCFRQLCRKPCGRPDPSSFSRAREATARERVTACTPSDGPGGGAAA
T4 sequence (P32245 whole entry): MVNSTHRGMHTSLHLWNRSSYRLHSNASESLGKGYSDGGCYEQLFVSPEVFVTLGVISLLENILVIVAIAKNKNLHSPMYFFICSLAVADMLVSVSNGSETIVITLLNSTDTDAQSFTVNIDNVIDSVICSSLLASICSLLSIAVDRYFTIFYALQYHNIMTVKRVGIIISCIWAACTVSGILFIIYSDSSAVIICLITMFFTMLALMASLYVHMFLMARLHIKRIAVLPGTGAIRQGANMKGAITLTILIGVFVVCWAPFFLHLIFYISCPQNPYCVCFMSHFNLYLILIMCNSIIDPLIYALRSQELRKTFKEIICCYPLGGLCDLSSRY
T6 sequence (Q99705 whole entry): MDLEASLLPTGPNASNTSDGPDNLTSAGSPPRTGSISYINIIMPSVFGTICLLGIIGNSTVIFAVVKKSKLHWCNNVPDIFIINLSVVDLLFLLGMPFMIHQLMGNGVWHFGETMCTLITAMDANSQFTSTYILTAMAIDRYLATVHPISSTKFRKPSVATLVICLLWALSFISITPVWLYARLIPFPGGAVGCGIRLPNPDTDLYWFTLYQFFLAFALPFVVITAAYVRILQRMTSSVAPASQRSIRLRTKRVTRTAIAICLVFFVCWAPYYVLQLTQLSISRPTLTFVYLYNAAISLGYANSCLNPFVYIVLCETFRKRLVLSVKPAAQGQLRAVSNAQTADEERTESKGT
T7 sequence (P35372 whole entry): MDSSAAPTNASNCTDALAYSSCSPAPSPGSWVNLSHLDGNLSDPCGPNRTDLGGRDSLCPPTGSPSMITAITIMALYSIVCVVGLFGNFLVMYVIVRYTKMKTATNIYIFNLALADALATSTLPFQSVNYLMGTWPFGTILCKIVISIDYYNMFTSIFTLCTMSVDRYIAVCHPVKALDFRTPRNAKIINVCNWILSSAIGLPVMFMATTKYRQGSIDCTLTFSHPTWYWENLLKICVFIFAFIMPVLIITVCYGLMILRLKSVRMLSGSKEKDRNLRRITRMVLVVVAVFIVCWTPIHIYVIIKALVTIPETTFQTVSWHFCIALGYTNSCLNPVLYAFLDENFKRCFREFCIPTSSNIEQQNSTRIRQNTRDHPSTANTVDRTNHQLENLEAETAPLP
T2 sequence (P41145 whole entry): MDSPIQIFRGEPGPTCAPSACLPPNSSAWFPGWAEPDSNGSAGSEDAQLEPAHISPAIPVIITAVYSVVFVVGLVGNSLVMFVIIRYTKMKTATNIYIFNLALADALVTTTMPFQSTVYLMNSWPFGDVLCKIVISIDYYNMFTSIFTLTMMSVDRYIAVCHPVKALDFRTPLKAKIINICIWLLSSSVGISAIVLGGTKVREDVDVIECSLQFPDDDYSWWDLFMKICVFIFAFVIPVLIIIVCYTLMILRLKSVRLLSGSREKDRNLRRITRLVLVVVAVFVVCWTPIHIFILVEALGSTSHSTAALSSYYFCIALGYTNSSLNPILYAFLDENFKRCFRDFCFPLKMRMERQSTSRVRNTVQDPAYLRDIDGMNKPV
T5 sequence (P33032 whole entry): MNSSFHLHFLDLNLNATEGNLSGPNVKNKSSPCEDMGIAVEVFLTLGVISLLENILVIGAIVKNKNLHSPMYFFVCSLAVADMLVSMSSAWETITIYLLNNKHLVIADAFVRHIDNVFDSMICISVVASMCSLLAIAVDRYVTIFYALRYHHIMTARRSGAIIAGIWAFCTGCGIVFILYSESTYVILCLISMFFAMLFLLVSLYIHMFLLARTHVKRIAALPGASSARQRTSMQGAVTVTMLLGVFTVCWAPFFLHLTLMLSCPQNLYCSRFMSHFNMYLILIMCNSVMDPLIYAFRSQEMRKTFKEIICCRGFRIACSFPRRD
T3 sequence (P41968 whole entry): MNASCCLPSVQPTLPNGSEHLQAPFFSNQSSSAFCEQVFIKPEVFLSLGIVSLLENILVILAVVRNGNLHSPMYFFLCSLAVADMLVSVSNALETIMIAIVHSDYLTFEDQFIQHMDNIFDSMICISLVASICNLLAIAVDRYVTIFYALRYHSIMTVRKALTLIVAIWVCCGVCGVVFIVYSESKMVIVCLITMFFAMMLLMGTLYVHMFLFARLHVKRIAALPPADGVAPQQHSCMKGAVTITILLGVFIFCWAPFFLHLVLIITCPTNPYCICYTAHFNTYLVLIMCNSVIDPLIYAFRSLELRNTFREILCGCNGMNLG
T10 sequence (P41146 whole entry): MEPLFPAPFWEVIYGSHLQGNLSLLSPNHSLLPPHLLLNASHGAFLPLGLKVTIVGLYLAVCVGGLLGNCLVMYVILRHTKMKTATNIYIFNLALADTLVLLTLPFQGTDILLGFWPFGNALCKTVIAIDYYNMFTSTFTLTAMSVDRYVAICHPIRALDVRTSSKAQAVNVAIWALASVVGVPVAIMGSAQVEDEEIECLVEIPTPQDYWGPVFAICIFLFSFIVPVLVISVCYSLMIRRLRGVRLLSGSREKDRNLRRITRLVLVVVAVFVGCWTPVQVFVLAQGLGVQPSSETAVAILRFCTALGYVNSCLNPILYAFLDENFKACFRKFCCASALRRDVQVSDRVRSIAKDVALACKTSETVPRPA

N=C(N)NCCC(=O)NC1C(OCc2ccc(-c3ccccc3)cc2)OC(COCc2ccc3ccccc3c2)C(O)C1OCc1ccc2ccccc2c1 (stereo not drawn) [compound 411]
A1: inhibition of radioligand binding (Human δ-opioid (DOP); human DOP membranes): − (“−” indicates less than 50% inhibition at 10 μM) | A2: inhibition of radioligand binding (Human κ-Opioid (KOP); human KOP membranes): − (“−” indicates less than 50% inhibition at 10 μM) | A3: inhibition of radioligand binding (Human Melanocortin (MC3); human MC3 membranes): + (“+” indicates greater than 50% inhibition at 10 μM) | A4: inhibition of radioligand binding (Human Melanocortin (MC4); human MC4 membranes): + (“+” indicates greater than 50% inhibition at 10 μM) | A5: inhibition of radioligand binding (Human melanocortin (MC5); human MC5 membranes): + (“+” indicates greater than 50% inhibition at 10 μM) | A6: inhibition of radioligand binding ([1]; [125I]-S36057, human MCH1 membranes): + (“+” indicates greater than 50% inhibition at 10 μM) | A7: inhibition of radioligand binding (Human μ-opioid (MOP); human MOP membranes): − (“−” indicates less than 50% inhibition at 10 μM) | A8: inhibition of radioligand binding (Human neurokinin (NK1); human NK1 membranes): + (“+” indicates greater than 50% inhibition at 10 μM) | A9: inhibition of radioligand binding ([2]; human NPY-Y1 membranes): − (“−” indicates less than 50% inhibition at 10 μM) | A10: inhibition of radioligand binding (Human opioid (ORL1); human ORL1 membranes): + (“+” indicates greater than 50% inhibition at 10 μM) | A11: inhibition of radioligand binding (Mouse urotensin (mUR2); mouse mUR2 membranes): − (“−” indicates less than 50% inhibition at 10 μM)

CO[C@H]1[C@H](O)[C@@H](COCc2cccc(O)c2)OC(OCc2ccc(-c3ccccc3)cc2)[C@@H]1NC(=O)CCCNC(=N)N (stereo partly drawn) [compound 149]
A1 radioligand binding, percentage inhibition (Human δ-opioid (DOP)): − (“−” indicates less than 50% inhibition at 10 μM) | A2 radioligand binding, percentage inhibition (Human κ-Opioid (KOP)): − (“−” indicates less than 50% inhibition at 10 μM) | A3 radioligand binding, percentage inhibition (Human Melanocortin (MC3)): − (“−” indicates less than 50% inhibition at 10 μM) | A4 radioligand binding, percentage inhibition (Human Melanocortin (MC4)): − (“−” indicates less than 50% inhibition at 10 μM) | A5 radioligand binding, percentage inhibition (Human melanocortin (MC5)): − (“−” indicates less than 50% inhibition at 10 μM) | A6 radioligand binding, percentage inhibition ([1]; [125I]-S36057): − (“−” indicates less than 50% inhibition at 10 μM) | A7 radioligand binding, percentage inhibition (Human μ-opioid (MOP)): + (“+” indicates greater than 50% inhibition at 10 μM) | A8 radioligand binding, percentage inhibition (Human neurokinin (NK1)): + (“+” indicates greater than 50% inhibition at 10 μM) | A9 radioligand binding, percentage inhibition [2]: − (“−” indicates less than 50% inhibition at 10 μM) | A10 radioligand binding, percentage inhibition (Human opioid (ORL1)): − (“−” indicates less than 50% inhibition at 10 μM) | A11 radioligand binding, percentage inhibition (Mouse urotensin (mUR2)): − (“−” indicates less than 50% inhibition at 10 μM)

CSC1O[C@H](COCc2ccccc2)[C@@H](O)[C@@H](OCc2ccc(-c3ccccc3)cc2)[C@H]1NC(=O)CCNC(=N)N (stereo partly drawn) [compound 286]
A1: inhibition of radioligand binding, human δ-opioid (DOP) (Human δ-opioid (DOP)): − (“−” indicates less than 50% inhibition at 10 μM) | A2: inhibition of radioligand binding, human κ-opioid (KOP) (Human κ-Opioid (KOP)): − (“−” indicates less than 50% inhibition at 10 μM) | A3: inhibition of radioligand binding, human melanocortin (MC3) (Human Melanocortin (MC3)): − (“−” indicates less than 50% inhibition at 10 μM) | A4: inhibition of radioligand binding, human melanocortin (MC4) (Human Melanocortin (MC4)): − (“−” indicates less than 50% inhibition at 10 μM) | A5: inhibition of radioligand binding, human melanocortin (MC5) (Human melanocortin (MC5)): + (“+” indicates greater than 50% inhibition at 10 μM) | A6: inhibition of radioligand binding, human melanin-concentrating hormone (MCH1) ([1]; [125I]-S36057): − (“−” indicates less than 50% inhibition at 10 μM) | A7: inhibition of radioligand binding, human μ-opioid (MOP) (Human μ-opioid (MOP)): − (“−” indicates less than 50% inhibition at 10 μM) | A8: inhibition of radioligand binding, human neurokinin (NK1) (Human neurokinin (NK1)): + (“+” indicates greater than 50% inhibition at 10 μM) | A9: inhibition of radioligand binding, human neuropeptide Y (NPY-Y1) [2]: − (“−” indicates less than 50% inhibition at 10 μM) | A10: inhibition of radioligand binding, human opioid (ORL1) (Human opioid (ORL1)): − (“−” indicates less than 50% inhibition at 10 μM) | A11: inhibition of radioligand binding, mouse urotensin (mUR2) (Mouse urotensin (mUR2)): − (“−” indicates less than 50% inhibition at 10 μM)
